{"source": "patent US20210228500A1", "about": "“CELLULAR RETINOID BINDING PROTEIN ANTAGONISTS AND USES THEREOF” (CASE WESTERN RESRVE UNIVERSITY, priority 2018, published 2021)", "target": "T1, holo-CRBP1 (Homo sapiens, UniProt P09455)", "T1 construct": "made in house", "T1 sequence (P09455 1-135)": "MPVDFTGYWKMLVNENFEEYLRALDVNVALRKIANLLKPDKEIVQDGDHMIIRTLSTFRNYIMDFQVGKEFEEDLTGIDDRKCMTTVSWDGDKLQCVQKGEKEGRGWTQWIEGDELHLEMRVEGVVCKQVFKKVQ", "test": "Retinol replacement assay with repurification and LC/MS", "type": "binding", "protocol": "holo-CRBP1 (500 μg) in 0.5 mL (67 μM) was incubated with tested compound (1:2 molar ratio) delivered in ethanol in 20 mM Tris/HCl, pH 8.0, 200 mM NaCl, 5% glycerol (v/v) at RT for 15 min. The sample was then diluted with 10 mM Tris/HCl, pH 8.0 to the final volume of 5 mL, loaded onto HiTrap Q HP column, and eluted as described above. The elution profiles were monitored at both 280 and 325 nm to concurrently record signals for the protein and the retinoid moieties.\nAfter incubation of apo- or holo-CRBP1 with abn-CBD, the protein was repurified on HiTrap Q HP column as described above. The protein fractions were collected, pooled together, and concentrated to 0.25 mL in an Amicon Ultra-4 centrifugal filter, cutoff 10,000 Da. For quantification purpose, 100 pmol of 3d-abn-CBD (internal standard) were added to the protein samples. To extract organic compounds associated with the repurified CRBP1, 0.25 mL of ethanol was added followed by 4 mL of hexane. […] Abn-CBD and its deuterated derivative were detected in the selected reaction monitoring (SRM) mode using m/z 315.2→221.2 and 318.2→224.1 transitions, respectively. Calibration curves were calculated based on the linear relationship between areas under SRM ion intensity for peaks corresponding to abn-CBD and the internal standard versus molar ratios of these compounds in a range from 20 to 500 pmol.", "note": "Entries after “also recorded” stand apart in the source; their conditions may differ."}
{"smiles": "C=C(C)[C@@H]1CCC(C)=C[C@H]1c1c(O)cc(O)cc1CCCCC", "note": "[abn-CBD, 4-[(1R,6R)-3-Methyl-6-prop-1-en-2-ylcyclohex-2-en-1-yl]-5-pentylbenzene-1,3-diol]", "values": [{"measurement": "loss of atROL from holo-CRBP1 (absorbance at 325 nm)", "setting": "holo-CRBP1 incubated with compound 1:2 molar ratio, repurified", "result": "diminished absorbance at 325 nm; also recorded: depletion of atROL"}, {"measurement": "replacement of atROL by ligand (ligand/protein quantification)", "setting": "holo-CRBP1 with 2 molar excess of abn-CBD, LC/MS", "result": "proportional replacement of the retinoid by the cannabinoid"}]}
